Test in all cases: Cell-Titer GLO cell inhibition
What all share (assay type): cell-based

Experiment [1] relates to Du145 (AR-negative prostate cancer). The settings on record: Du145. From the text: (§1) The inhibition curve was fitted by GraphPad Prism software to obtain IC50.
Experiment [2] relates to C4-2B (AR-positive prostate cancer). Conditions: 72 to 144 hours.
Description: as §1

The subject of experiment [3] is Hs578T (triple negative breast cancer). Conditions: Hs578T. How it is done: (§2) Experimental materials: fluorescence signal detection instrument: EnSpire Alpha 2390 multifunctional microplate reader (produced by Perkin Elmer Company); 384-well bottom permeable microwell plate; Cell-Titer GLO luminescent reagent; cancer cells to be tested; medium and fetal bovine serum required for cell culture.
(§3) […]. After incubation with the compound for 72 to 144 hours, Cell-Titer GLO reagent 25-T was added to each well, and the plate was shaken for 20 minutes to lyse the cells. After incubation for 10 minutes, the cells were centrifuged for 1 minute, the signal value of luminescence 384 was measured. The inhibition curve was fitted by GraphPad Prism software to obtain IC50.

The subject of experiment [4] is VcaP (AR-positive prostate cancer). The settings on record: VcaP; 72 to 144 hours; read-out: IC50. As for the experimental part:
as §2, §3

In experiment [5] the test system is Cos7 (African green monkey kidney cells). Conditions: Cos7; read-out: IC50. As for the experimental part:
as §2, §3

The next experiment deals with HT-29 (colon cancer). The settings on record: read-out: IC50. How it is done: as §2, §3
For experiment [6], the system named is 293T (human renal epithelial cell line transfected with adenovirus E1A gene, expressing SV40 large T antigen). Conditions: 293T. As for the experimental part:
as §2, §3

Experiment [7] relates to MCF-7 (ER + breast cancer). Conditions: MCF-7. As for the experimental part:
as §2, §3

The subject of experiment [8] is H1975 (lung cancer cells). The settings on record: H1975. As for the experimental part: as §2, §3
The next experiment concerns MV-4-11 (acute leukemia). The settings on record: MV-4-11; read-out: IC50. How it is done:
as §2, §3

Experiment [9] deals with A549 (non-small cell lung cancer). How it is done: as §2, §3
The next experiment deals with HFL-1 (lung fibroblasts). The settings on record: HFL-1; ~ = estimate; read-out: IC50. As for the experimental part:
as §2, §3

In a further experiment the test system is U2OS (osteosarcoma). How it is done:
as §2, §3

With `OC(c1ccc(-c2ccc(CN3CCN(Cc4ccncc4)CC3)cc2)c(F)c1)(C(F)(F)F)C(F)(F)F` [SR2211, reference compound], the “inhibition rate (value in brackets)” value in [1] is recorded as about 50%; in [3], about 50%; in experiment [6], 67%; in experiment [7], 42%; in experiment [8] it was 41%; in [9], 55%. Further, in the experiment with U2OS (osteosarcoma), the “inhibition rate (value in brackets)” value is listed as 52%. Besides, the IC50 in [1] (72 to 144 hours, ~ = estimate, read-out: IC50) is about 10 µM; in experiment [2] it was 10.1 µM; in experiment [3] (~ = estimate, read-out: IC50), about 10 µM; in experiment [4], 37.6 µM; in experiment [5], over 100 µM; in the experiment with HT-29 (colon cancer), over 50 µM. The IC50 in experiment [6] (~ = estimate, read-out: IC50) was about 80 µM; in experiment [7] (~ = estimate, read-out: IC50), about 9.98 µM; in experiment [8] (read-out: IC50), 30.7 µM; in the experiment with MV-4-11 (acute leukemia), 11.5 µM; in experiment [9] (~ = estimate, read-out: IC50) it was about 10 µM; with HFL-1 (lung fibroblasts) it was over 50 µM. Moreover, in the experiment on U2OS (osteosarcoma) (~ = estimate, read-out: IC50), the 50% inhibitory concentration (IC50) was about 10 µM.

A word on the IC50: it is the concentration at which inhibition is half-maximal.

The values above are taken from patent publication US12297164B2, “Benzidine compound and application thereof” (Guangzhou IMD therapeutics Co., Ltd., priority 2019, dated 2025).
